Measurements reported in patent publication EP0212822A1, “A composition containing a plant growth regulator and an alkanol and a method of using the same” (ICI AMERICAS INC., priority 1985, dated 1987).

What was measured:
Siberian Elm = assay: Trunk injection of trees (Brown method), Retardation and Uniformity Ratings; assay type: in vivo, Ulmus pumila (Siberian Elm); parameters: key to Uniformity Rating (U): 0 = no effect from PGR; 1 = poor; 2 = fair; 3 = acceptable; 4 = very good; 5 = excellent; settings: 10 g (II) in 1 liter methanol
Protocol: A method of tree injection and apparatus employed herein is discussed in G. K. Brown, "Prototype Equipment for Commercial Pressure - Injection of Aqueous Growth Regulators Into Trees," Journal of Arboriculture, Vol. 4, pp. 7-13, 1978, and in the references noted therein. Under the Brown method the number of injection holes and total injection volume (TIV) of PGR solution is determined by measuring the diameter of the tree at DBH and using the following formulae: […]
(§1) The examples which follow exemplify the improvements obtained by this invention. However, these examples are not intended to limit the scope of the invention. In Examples 1-41, the subject trees were injected at a distance approximately one foot from the soil line by drilling 7/32 inch diameter holes to a 2 inch depth at a 30-45° angle tangential to the trunk with a pressure injector (150 psi) purchased from the Asplundh Tree Expert Co., Company No. 346-3502. The results are expressed in terms of Retardation and Uniformity Ratings. The Retardation rating scale is as follows: • 0 = no retardataion • 1 = 1-20% retardation • 2 = 21-40% retardation • 3 = 41-60% retardation • 4 = 61-80% retardation • 5 = 81-100% retardation
(§2) The Uniformity Rating is a measure of the consistency of response to the treatment between different branches of the tree. The Uniformity scale employed is as follows: • 0 = no effect from PGR • 1 = poor • 2 = fair • 3 = acceptable • 4 = very good • 5 = excellent
10 (0.034 moles) grams of (2RS,3RS)-1-(4-chlorophenyl)-4,4-dimethyl-2-1,2,4-triazol-1-yl)pen- tan-3-ol (II) of the formula [drawing 41] was dissolved in 1 liter of methanol at room temperature and was stirred until the solution was clear, approximately 20 minutes.
In these examples, the number of injection holes, volume per injection hole and total injection volume in ml was determined from the DBH in accordance' with the Brown method.

[1] = Solubility in methanol water mixtures (HPLC and UV absorption); assay type: physicochemical
Protocol: An excess of compound of formula (II) was shaken with methanol water mixtures for a minimum of 4 hours. Samples were passed through a micropore filter to remove undissolved solid, and then centrifuged to remove any emulsified material. The resulting saturated solutions were analyzed by both HPLC and UV absorption against known standard solutions. […] In water alone, solubility is only 35 mg 1^-1 (ppm). Thus, formulations of formula (II) in methanol are low in viscosity when injected, and the PGR will rapidly precipitate within the trunk as the methanol becomes diluted with transpiration water.

Sycamore = assay: Trunk injection, holes at 8 inch intervals, Retardation and Uniformity Ratings; assay type: in vivo, Platanus occidentalis (Sycamore); parameters: key to Uniformity Rating (U): 0 = no effect from PGR; 1 = poor; 2 = fair; 3 = acceptable; 4 = very good; 5 = excellent; settings: 75 ml/hole
Protocol: as §1, §2
10 (0.034 moles), 20 (0.068 moles) and 40 grams (0.136 moles) of (2RS, 3RS)-1-(4-chlorophenyl)-4,4-dimethyl-2-1,2,4-triazol-1-yl)pentan-3-ol (PGR) was dissolved in 1,1 and 1 liter, respectively, of methanol at room temperature and was stirred until the solution was clear, approximately 20 to 60 minutes. In these examples, the injection holes were placed at approximate 8 inch intervals.

Water Oak = assay: Trunk injection, holes at 4 inch intervals, Retardation and Uniformity Ratings; assay type: in vivo, Quercus nigra (Water Oak); parameters: key to Uniformity Rating (U): 0 = no effect from PGR; 1 = poor; 2 = fair; 3 = acceptable; 4 = very good; 5 = excellent; settings: 38 ml/hole
Protocol: as §1, §2
10 (0.034 moles), 20 (0.068 moles) and 40 grams (0.136 moles) of (2RS, 3RS)-1-(4-chlorophenyl)-4,4-dimethyl-2-l,2,4-triazol-l-yl)pentan-3-ol (PGR) were dissolved in 1,1 and 1 liter, respectively, of methanol at room temperature and was stirred until the solution was clear, approximately 20 to 60 minutes. In these examples, the injection holes were placed at approximate 4 inch intervals.

[2] = Absorption kinetics: binding of 14C-labelled compound to sawdust; assay type: physicochemical, Betula pendula-Roth (Birch); settings: for µg in solution: 2 gm sawdust, 20 ml water, 10 mg/l 14C (II)
Protocol: This example illustrates the binding (absorption) properties of the PGR of this invention to wood of the-conducting tissue of Betula pendula-Roth (Birch). The compounds of this invention preferably show partial and reversible binding which enhances the slow release effect by initial precipitation in the trunk. Sawdust samples were obtained from the outer wood of freshly cut, debarked logs. 2 gm samples of sawdust were shaken with 20 ml water containing ^14C triazole-labelled (II) at a concentration of 10 mg 1^-1. At intervals, the aqueous phase was subsampled, and the concentration of (II) determined by scintillation counting. A decrease in concentration reflects binding to the wood, expressed as kd (ratio of chemical bound to wood:chemical in solution).

[3] = week 14 after treatment, listed as 1, 12 in. DBH tree, 229 ml per tree
[4] = week 14 after treatment, listed as 2, 17 in. DBH tree, 432 ml per tree
[5] = week 14 after treatment, listed as 3, 13 in. DBH tree, 268 ml per tree
[6] = week 14 after treatment, listed as 4, 11 in. DBH tree, 192 ml per tree
[7] = week 14 after treatment, listed as 5, 15 in. DBH tree, 119 ml per tree
[8] = week 14 after treatment, listed as 6, 11 in. DBH tree, 192 ml per tree
[9] = week 67 after treatment, listed as 1, 12 in. DBH tree, 229 ml per tree
[10] = week 67 after treatment, listed as 2, 17 in. DBH tree, 432 ml per tree
[11] = week 67 after treatment, listed as 3, 13 in. DBH tree, 268 ml per tree
[12] = week 67 after treatment, listed as 4, 11 in. DBH tree, 192 ml per tree
[13] = week 67 after treatment, listed as 5, 15 in. DBH tree, 119 ml per tree
[14] = week 67 after treatment, listed as 6, 11 in. DBH tree, 192 ml per tree
[15] = week 24, 20 g PGR in 1 liter methanol
[16] = week 56, 20 g PGR in 1 liter methanol
[17] = week 24, 10 g PGR in 1 liter methanol
[18] = week 56, 10 g PGR in 1 liter methanol

In the case of CC(C)(C)[C@@H](O)[C@@H](Cc1ccc(Cl)cc1)n1cncn1 (racemic) [Formula (II), (2RS,3RS)-1-(4-chlorophenyl-4,4-dimethyl-2-1,2,4-triazol-1-yl)pentan-3-ol], the “Retardation Rating (R)” value (Siberian Elm; [3]) is reported as 3 (3 = 41-60% retardation), the “Uniformity Rating (U)” value (Siberian Elm; [3]) is reported as 4 and the “Retardation Rating (R)” value (Siberian Elm; [4]) is reported as 3 (3 = 41-60% retardation). For the same compound, the “Uniformity Rating (U)” value (Siberian Elm; [4]) was 3, the “Retardation Rating (R)” value (Siberian Elm; [5]) was 4 (4 = 61-80% retardation) and the “Uniformity Rating (U)” value (Siberian Elm; [5]) was 4. The “Retardation Rating (R)” value (Siberian Elm; [6]) was 4 (4 = 61-80% retardation), the “Uniformity Rating (U)” value (Siberian Elm; [6]) was 4 and the “Retardation Rating (R)” value (Siberian Elm; [7]) was 3 (3 = 41-60% retardation). The “Uniformity Rating (U)” value (Siberian Elm; [7]) was 5, the “Retardation Rating (R)” value (Siberian Elm; [8]) was 3 (3 = 41-60% retardation) and the “Uniformity Rating (U)” value (Siberian Elm; [8]) was 4. For the same compound, the “Retardation Rating (R)” value (Siberian Elm; [9]) was 5 (5 = 81-100% retardation), the “Uniformity Rating (U)” value (Siberian Elm; [9]) was 5 and the “Retardation Rating (R)” value (Siberian Elm; [10]) was 4 (4 = 61-80% retardation). For the same compound, the “Uniformity Rating (U)” value (Siberian Elm; [10]) was 3, the “Retardation Rating (R)” value (Siberian Elm; [11]) was 4 (4 = 61-80% retardation) and the “Uniformity Rating (U)” value (Siberian Elm; [11]) was 4. The “Retardation Rating (R)” value (Siberian Elm; [12]) was 5 (5 = 81-100% retardation), the “Uniformity Rating (U)” value (Siberian Elm; [12]) was 5 and the “Retardation Rating (R)” value (Siberian Elm; [13]) was 5 (5 = 81-100% retardation). For the same compound, the “Uniformity Rating (U)” value (Siberian Elm; [13]) was 5, the “Retardation Rating (R)” value (Siberian Elm; [14]) was 5 (5 = 81-100% retardation) and the “Uniformity Rating (U)” value (Siberian Elm; [14]) was 5. For the same compound, the solubility at 4 h ([1]; in water alone) was 35 µg/mL, the solubility at 4 h ([1]; organic solvent or mixture, 10 % Methanol in water) was 53 µg/mL and the solubility at 4 h ([1]; organic solvent or mixture, 20 % Methanol in water) was 89 µg/mL. For the same compound, the solubility at 4 h ([1]; organic solvent or mixture, 50 % Methanol in water) was 1200 µg/mL, the solubility at 4 h ([1]; organic solvent or mixture, 100 % Methanol) was 56000 µg/mL and the solubility at 4 h ([1]; water (0% methanol), organic solvent or mixture, 0 % Methanol) was 35 µg/mL. The “Retardation Rating (R)” value (Sycamore; [15]) was 3 (3 = 41-60% retardation), the “Uniformity Rating (U)” value (Sycamore; [15]) was 4 and the “Retardation Rating (R)” value (Sycamore; [16]) was 4 (4 = 61-80% retardation). The “Uniformity Rating (U)” value (Sycamore; [16]) was 4, the “Retardation Rating (R)” value (Water Oak; [17]) was 5 (5 = 81-100% retardation) and the “Uniformity Rating (U)” value (Water Oak; [17]) was 5. For the same compound, the “Retardation Rating (R)” value (Water Oak; [18]) was 5 (5 = 81-100% retardation), the “Uniformity Rating (U)” value (Water Oak; [18]) was 5 and the µg in solution ([2]; 0 hours) was 200 µg. The “kd (ratio of chemical bound to wood:chemical in solution)” value ([2]; 0.5 hours) was 0.7, the µg in solution ([2]; 0.5 hours) was 116 µg and the “kd (ratio of chemical bound to wood:chemical in solution)” value ([2]; 1 hour) was 1.4. For the same compound, the µg in solution ([2]; 1 hour) was 84 µg, the “kd (ratio of chemical bound to wood:chemical in solution)” value ([2]; 2 hours) was 1.5 and the µg in solution ([2]; 2 hours) was 81 µg. The “kd (ratio of chemical bound to wood:chemical in solution)” value ([2]; 4 hours) was 1.7, the µg in solution ([2]; 4 hours) was 75 µg and the “kd (ratio of chemical bound to wood:chemical in solution)” value ([2]; 8 hours) was 1.8. For the same compound, the µg in solution ([2]; 8 hours) was 72 µg, the “kd (ratio of chemical bound to wood:chemical in solution)” value ([2]; 24 hours) was 1.7 and the µg in solution ([2]; 24 hours) was 74 µg. The “kd (ratio of chemical bound to wood:chemical in solution)” value ([2]; 48 hours) was 1.8 and the µg in solution ([2]; 48 hours) was 76 µg.
